Data as given in patent publication US6943147B2, “Cancer treatment using proANP peptides” (University of South Florida, priority 2003, dated 2005).

Test system: human pancreatic adenocarcinomas
Test: Growth of human pancreatic adenocarcinomas in vivo in athymic mice
Set-up: species or system NCr athymic nude mice
Description: The animals used in the whole animal studies were NCr athymic nude mice. The NCr athymic outbred stock is the standard athymic model for National Cancer Institute (NCI) studies as well as many pharmaceutical and institutional oncology screening programs. The nude gene in homozygous (nu/nu) mice causes the lack of fur and an abnormal thymus. The deficiency in T cell function allows athymic mice to accept and grow xenografts as well as allograftsof normal and malignant tissues. Heterozygous (nu/+) animals carry the recessive nude gene on one chromosome only and therefore have a normal thymus triggered immune system. NCr-nu breeder stock was obtained from the NCI in 1993 after several years of random breeding. It was hysterectomy derived to achieve germfree status prior to its introduction into IBU colonies. This outbred stock has both BALB/c inbred and NIH(S) outbred stock in its genetic background. The homozygotes (nu/nu) used for the proposed investigations are albino animals with the model number of NCRNU-M from […] also being called Tac:Cr:(NCr)-Foxn1^nu: Six week old nude mice were utilized for these studies as they weight approximately 20 grams at this time period and the subcutaneous pumps used to infuse the respective four atrial natriuretic peptides were designed for 20 gram and larger mice. These mice accept malignant tissues. After one week of accliminization to their new surroundings, the mice have 1×10^6 of the adenocarcinoma cells placed under the skin on their backs. […] Tumor volume was calculated by the formula V (volume)=a×b^2/2 where “a” is the largest superficial diameter and b is the smallest superficial diameter. […] When the tumors first became palpable their volume was recorded and then an osmotic pump (Alzet Model 1002) containing either 0.9% saline (control infusion) or one of the respective peptide hormones in 0.9% saline was placed subcutaneously between the shoulder blades under anesthesia (pentobarbital 40 mg/kg body wt intraperitoneally). […]

Substance: vessel dilator: a.a. 31-67 of the 126 a.a. ANP prohormone; peptide hormone from Peninsula Laboratories
- side effects (139 ng/min/kg infusion in whole animals): no side effects
- growth of the human adenocarcinomas (139 ng/min/kg of body weight, subcutaneous infusion pump, 14 days, n=14): stopped the growth
- change in tumor volume during the two weeks of infusion (139 ng/min/kg, 14 days, saline-treated increased 100 mm^3): no increase in volume
